Results: patent publication US20190276376A1, “CAPSULES COMPRISING BENZYLPROPARGYLETHERS FOR USE AS NITRIFICATION INHIBITORS” (BASF SE, priority 2016, published 2019)

Experiments:
[1] = Vapor pressure by thermogravimetry; assay type: physicochemical; settings: at 20° C.; Mettler Toledo STAR thermogravimeter
Procedure: The vapor pressure can be determined by thermogravimetry by methods known in the art. In the context of the present invention, a Mettler Toledo STAR thermogravimeter with 5 mg sample on a glass plate may be used. As a reference compound, 3,4-dimethyl pyrazole (DMP) was inter alia measured and a vapor pressure of 3.7 Pa at 20° C. was determined.

N2O emissions = N2O emissions from potted lettuce in greenhouse soil, gas chamber sampling, GC-ECD; assay type: in vivo, Green head lettuce; settings: total cumulated N2O emissions, % inhibition compared to control; greenhouse 20° C., 60% humidity
Procedure: Green head lettuce was seeded in seedling boxes. Once the 4 leaf stage was reached one plant was potted into a 8 cm pot in standard greenhouse soil (mixture of peat, loam and sand) and grown in the greenhouse at 20° C. and 60% humidity. One week after planting the plants, the pots were separated out and each pot set onto a plant saucer designed with an inner compartment for the pot and an outer ring that is filled with water. At time 0, water with or without various concentrations of fertilizer and with either empty formulation or formulated capsule suspensions was applied to the plant such that the water holding capacity of the soil was around 50%. Then a gas sampling chamber was placed over the plant saucer such that the rim fit into the ring filled with water to create a gas-tight chamber and 20 cc air from the chamber were drawn into a syringe and immediately emptied in to a Vacutainer (Labco, 12 ml volume). This equals the Time Zero measurement for each pot. The same procedure was performed with all pots in the experiment. After incubation time of 1 h, again 20 cc air samples were taken from the gas chambers and emptied into Vacutainers as described above. […]
Samples were analyzed in a Shimadzu 2014 GC equipped with an ECD system. Total cumulated N2O emissions were calculated and related by calculating the % inhibition compared to control.

Row | vapor pressure [1] [Pa] | Compound | Inhibition (%) N2O emissions (N2O emissions) [%]
1 | 3.7 | Cc1cn[nH]c1C [3,4-dimethyl pyrazole (DMP), 3,4-dimethyl pyrazole] | –
2 | – | C#CCOCc1ccc(Cl)cc1 [Example A-10] | 25
